Where two headings read alike, the source gives them in different places. Where only a bound is given, the exact number is not on record here.

Experiment [1] addresses menin protein (Homo sapiens (Human), UniProt O00255). Kind of experiment: biochemical. As to conditions: FP competitive binding; menin protein 4 nM, FAM-MM2 probe 2 nM; read-out: Menin Binding Affinity IC50. The class given is binding. In short, it runs like this:
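Test compounds displaced FAM-MM2 (2 nM) from 4 nM menin after 30 min equilibration at room temperature in PBS buffer containing bovine γ-globulin, 4% DMSO and Triton X-100. Binding was followed by fluorescence polarization. Competition curves were fitted by nonlinear regression to give IC50 and Ki.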

Experiment [2] can be described thus: Cell growth inhibition, CellTiter-Glo Luminescent Cell Viability Assay. The class given is cell-based. The method, then:
Cell growth inhibitory activity of representative menin inhibitors was determined using CellTiter-Glo® Luminescent Cell Viability Assay. Cells were seeded in 384-well white opaque cell culture plates at a density of 2,000 cells/well with serially diluted compounds and incubated at 37° C. in an atmosphere of 95% air and 5% CO2 for 4 days. Cell viability was determined using the CellTiter-Glo® Luminescent Cell Viability Assay Kit (Promega, Madison, Wis.) according to the manufacture's instruction. Briefly, a volume of CellTiter-Glo® Reagent equal to the volume of cell culture medium was added to each well, and then the plates were incubated at room temperature for 10-20 minutes. The luminescent signal was measured using a Tecan Infinite M1000 multimode microplate reader (Tecan, Morrisville, N.C.). The half maximal inhibitory concentration (IC50) was calculated using the GraphPad Prism 5 software (GraphPad Software, La Jolla, Calif.).

[3] abbreviates: MOLM-13, 96 h, MOLM13 cells, 4 days, CellTiter-Glo, read-out: Cell Growth Inhibition IC50 (μM) MOLM13.
Setting [4] is: MV4-11, 96 h, MV4, 11 cells, 4 days, CellTiter-Glo, read-out: Cell Growth Inhibition IC50 (μM) MV4, 11.
The mark [5] stands for this setting: MOLM-13, 96 h, read-out: Cell Growth Inhibition IC50 (μM) MOLM13, MOLM13 cells, 4 days, CellTiter-Glo.
Where [6] appears, read: MV4-11, 96 h, read-out: Cell Growth Inhibition IC50 (μM) MV4, 11, MV4, 11 cells, 4 days, CellTiter-Glo.

Sequence of menin protein (O00255 whole entry): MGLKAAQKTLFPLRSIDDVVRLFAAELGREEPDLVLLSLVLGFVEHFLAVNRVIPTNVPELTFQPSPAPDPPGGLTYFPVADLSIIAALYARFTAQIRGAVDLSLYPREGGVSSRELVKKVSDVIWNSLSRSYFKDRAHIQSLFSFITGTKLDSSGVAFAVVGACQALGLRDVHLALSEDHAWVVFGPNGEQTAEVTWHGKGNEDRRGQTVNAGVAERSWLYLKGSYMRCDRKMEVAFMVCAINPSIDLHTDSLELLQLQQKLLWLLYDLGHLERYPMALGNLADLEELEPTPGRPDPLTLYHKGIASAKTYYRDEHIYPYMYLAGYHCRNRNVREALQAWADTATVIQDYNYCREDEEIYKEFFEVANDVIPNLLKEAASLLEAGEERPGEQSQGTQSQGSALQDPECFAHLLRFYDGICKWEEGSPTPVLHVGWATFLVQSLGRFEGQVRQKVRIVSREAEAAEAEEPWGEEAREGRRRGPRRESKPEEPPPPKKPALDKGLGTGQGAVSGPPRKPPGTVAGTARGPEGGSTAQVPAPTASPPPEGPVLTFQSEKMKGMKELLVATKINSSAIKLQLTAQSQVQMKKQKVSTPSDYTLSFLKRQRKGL

Broadly, the IC50 is the midpoint of a concentration-inhibition curve. For the molecule `O=S(=O)(c1ccc(N2CC(CN3CCC(C4(C5CCCC5)NCCc5ccccc54)CC3)C2)cc1)C1CC1` (stereo not drawn) [compound 135, 1-cyclopentyl-1-(1-((1-(4-(cyclopropylsulfonyl)phenyl)azetidin-3-yl)methyl)piperidin-4-yl)-1,2,3,4-tetrahydroisoquinoline], the IC50 in experiment [1] is 25 nM; in experiment [2] (setting [3]), 2.1 ± 1 µM; in experiment [2] (setting [4]), 1.3 ± 0.4 µM.
The corresponding values for `CCN1Cc2ccccc2C(C2CCCC2)(C2CCN(CC3CN(c4ccc(S(=O)(=O)c5cccnc5)cc4)C3)CC2)C1` (stereo not drawn) [compound 152, 4-cyclopentyl-2-ethyl-4-(1-((1-(4-(pyridin-3-ylsulfonyl)phenyl)azetidin-3-yl)methyl)piperidin-4-yl)-1,2,3,4-tetrahydroisoquinoline] are 9 nM, 0.49 µM and 0.46 µM.
`CCN1Cc2ccccc2C(C2CCCC2)(C2CCN(CC3CN(c4ccc(S(=O)(=O)C5CC5)cc4)C3)C(C)C2)C1` (stereo not drawn) [compound 94, 4-cyclopentyl-4-(1-((1-(4-(cyclopropylsulfonyl)phenyl)azetidin-3-yl)methyl)-2-methylpiperidin-4-yl)-2-ethyl-1,2,3,4-tetrahydroisoquinoline]: the IC50 in experiment [1] is 29 nM; in experiment [2] (setting [3]), 2.3 µM; in experiment [2] (setting [4]), 2 µM.
Take `CCc1nccn1CC(c1ccccc1)(C1CCN(CC2CN(c3ccc(C#N)cc3)C2)CC1)[C@@H]1CCC[C@H]1OC(=O)NC` (mixture of isomers) [compound 409, rac-(1R,2S)-2-(1-(1-((1-(4-cyanophenyl)azetidin-3-yl)methyl)piperidin-4-yl)-2-(2-ethyl-1H-imidazol-1-yl)-1-phenylethyl)cyclopentyl methylcarbamate]: the IC50 in experiment [1] is 116 nM; in experiment [2] (setting [5]) it was 1.6 µM; in experiment [2] (setting [6]), 1.7 µM.
For `CNC(=O)O[C@H]1CCC[C@@H]1C(C#N)(c1ccccc1)C1CCN(CC2(C)CN(c3ccc(S(=O)(=O)c4cnn(C)c4)cc3)C2)CC1` (mixture of isomers) [compound 372, rac-(1S,2R)-2-(cyano(1-((3-methyl-1-(4-((1-methyl-1H-pyrazol-4-yl)sulfonyl)phenyl)azetidin-3-yl)methyl)piperidin-4-yl)(phenyl)methyl)cyclopentyl methylcarbamate] the same measures were 48 nM, 5.01 µM and 2.03 µM.
Consider `CNC(=O)O[C@H]1CCC[C@@H]1[C@](C#N)(c1ccccc1)C1CCN(CC2CN(c3ccc(S(=O)(=O)c4ccncc4)cc3)C2)CC1` (mixture of isomers) [compound 353, rac-(1S,2R)-2-((S)-cyano(phenyl)(1-((1-(4-(pyridin-4-ylsulfonyl)phenyl)azetidin-3-yl)methyl)piperidin-4-yl)methyl)cyclopentyl methylcarbamate], for which the figures for the IC50 in experiment [1], in experiment [2] (setting [5]) and in experiment [2] (setting [6]) were 6 nM, 0.25 µM and 0.075 µM, respectively.
As for `CNC(=O)N[C@H]1CCC[C@@H]1C1(C2CCN(CC3CN(c4ccc(S(=O)(=O)c5cnn(C)c5)cc4)C3)CC2)CN(C)Cc2ccccc21` (mixture of isomers) [compound 284, rac-1-methyl-3-((1S,2R)-2-(2-methyl-4-(1-((1-(4-((1-methyl-1H-pyrazol-4-yl)sulfonyl)phenyl)azetidin-3-yl)methyl)piperidin-4-yl)-1,2,3,4-tetrahydroisoquinolin-4-yl)cyclopentyl)urea], the IC50 was 11 nM in experiment [1], above 10 µM in experiment [2] (setting [5]) and 2.59 µM in experiment [2] (setting [6]).
For `CNC(=O)N[C@H]1CCC[C@@H]1C1(C2CCN(CC3CN(c4ccc(S(=O)(=O)c5ccncc5)cc4)C3)CC2)CN(C)Cc2ccccc21` (mixture of isomers) [compound 277, rac-1-methyl-3-((1S,2R)-2-(2-methyl-4-(1-((1-(4-(pyridin-4-ylsulfonyl)phenyl)azetidin-3-yl)methyl)piperidin-4-yl)-1,2,3,4-tetrahydroisoquinolin-4-yl)cyclopentyl)urea] the same measures were 8 nM, 0.43 µM and 0.12 µM.
Consider `COC(=O)N[C@H]1CCC[C@@H]1[C@](C#N)(c1ccccc1)C1CCN(CC2CN(c3ccc(S(=O)(=O)C(F)(F)F)cc3)C2)CC1` [Cpd. No. 403, methyl ((1S,2R)-2-((S)-cyano(phenyl)(1-((1-(4-((trifluoromethyl)sulfonyl)phenyl)azetidin-3-yl)methyl)piperidin-4-yl)methyl)cyclopentyl)carbamate], for which the half-maximal inhibitory concentration (IC50) in experiment [2] (setting [5]) came to 1.3 µM; in experiment [2] (setting [6]), 0.19 µM.
The corresponding values for `COC(=O)N[C@H]1CCC[C@@H]1C(C#N)(c1ccccc1)C1CCN(CC2CN(c3ccc(S(=O)(=O)C(F)(F)F)cc3)C2)CC1` (mixture of isomers) [compound 393, methyl rac-((1S,2R)-2-(cyano(phenyl)(1-((1-(4-((trifluoromethyl)sulfonyl)phenyl)azetidin-3-yl)methyl)piperidin-4-yl)methyl)cyclopentyl) carbamate] are 0.88 µM and 0.25 µM.
Turning to `N#Cc1ccc(OCCCN2CCC(C3(C4CCCC4)NCCc4ccccc43)CC2)cc1` (stereo not drawn) [compound 27, 4-(3-(4-(1-cyclopentyl-1,2,3,4-tetrahydroisoquinolin-1-yl)piperidin-1-yl)propoxy)benzonitrile], the IC50 was 3.6 µM in experiment [2] (MOLM-13, 96 h, read-out: Cell Growth Inhibition IC50 (μM) MOLM13) and 0.9 µM in experiment [2] (MV4-11, 96 h, read-out: Cell Growth Inhibition IC50 (μM) MV4, 11).
With `COC(=O)N[C@H]1CCC[C@@H]1C(C#N)(c1ccccc1)C1CCN(CC2CN(c3ccc(C#N)cc3)C2)CC1` (mixture of isomers) [compound 400, methyl rac-((1S,2R)-2-(cyano(1-((1-(4-cyanophenyl)azetidin-3-yl)methyl)piperidin-4-yl)(phenyl)methyl)cyclopentyl) carbamate], the IC50 in experiment [2] (setting [3]) came to 6.11 µM; in experiment [2] (setting [4]) it was 0.83 µM.
As to `COC(=O)[C@H]1CCC[C@@H]1C(C#N)(c1ccccc1)C1CCN(CC2CN(c3ccc(S(=O)(=O)C4CC4)cc3)C2)CC1` (mixture of isomers) [compound 332, methyl rac-(1S,2S)-2-(cyano(1-((1-(4-(cyclopropylsulfonyl)phenyl)azetidin-3-yl)methyl)piperidin-4-yl)(phenyl)methyl)cyclopentane-1-carboxylate], the IC50 in experiment [1] was determined as 261 nM.
Turning to `CNC(=O)O[C@@H]1CCC[C@H]1C(C#N)(c1ccccc1)C1CCN(CC2CN(c3ccc(C(F)(F)F)cc3)C2)CC1` (mixture of isomers) [compound 368, rac-(1R,2S)-2-(cyano(phenyl)(1-((1-(4-(trifluoromethyl)phenyl)azetidin-3-yl)methyl)piperidin-4-yl)methyl)cyclopentyl methylcarbamate], the IC50 in experiment [1] stood at 506 nM.
Same read-out and setting: the figure for `N#CC(c1ccccc1)(C1CCN(CC2CN(c3ccc(S(=O)(=O)c4ccncc4)cc3)C2)CC1)[C@H]1CCC[C@@H]1OC(=O)C1CC1` (mixture of isomers) [compound 197, rac-(1S,2R)-2-(cyano(phenyl)(1-((1-(4-(pyridin-4-ylsulfonyl)phenyl)azetidin-3-yl)methyl)piperidin-4-yl)methyl)cyclopentyl cyclopropanecarboxylate] is 18 nM; for `COC(=O)N[C@@H]1CCC[C@H]1C(C#N)(c1ccccc1)C1CCN(CC2CN(c3ccc(S(=O)(=O)c4ccncc4)cc3)C2)CC1` (mixture of isomers) [Cpd. No. 346, methyl (rac-(1R,2S)-2-(cyano(phenyl)(1-((1-(4-(pyridin-4-ylsulfonyl)phenyl)azetidin-3-yl)methyl)piperidin-4-yl)methyl)cyclopentyl)carbamate] it is 569 nM.

Source of the values: patent publication US10899738B2 (THE REGENTS OF THE UNIVERSITY OF MICHIGAN, priority 2016, dated 2021).
